# Laboratory results taken from PubChem BioAssay AID1845208 (Molecular Pharmacology Branch, DTP, NCI, 2023).
# pIC50: −log10 of the molar value. Where “and” joins values, the source holds several entries; their conditions need not be identical. Equal values may be shown once.
# System: NCI-H196 SCLC complex tumor spheroid viability
# Test: Anticancer human tumor NCI-H196 cell line growth inhibition;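 further: spheroids exposed to compounds for 7 days before readout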;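 on viability, T/C: 100% = DMSO vehicle control wells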
# Details: for viability, T/C: stronger effect = lower value
# How it was run: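 Complex spheroids of malignant cells with endothelial cells and mesenchymal stem cells; agents alone or combined, from near clinical Cmax (or 10 microM if unknown) down in half-log steps, 0.25% DMSO final.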
compound,measurement,setting,value
COc1ccc([C@@H](O)c2cc(-c3ncnc4cc(N5CCOCC5)ccc34)c(F)cc2Cl)nn1 + COc1cc2c(cc1O)CCNC21CSC2c3c(OC(C)=O)c(C)c4c(c3C(COC1=O)N1C(O)C3Cc5cc(C)c(OC)c(O)c5C(C21)N3C)OCO4,pIC50,"curve of first compound, second compound 30 pM",5.04
same,pIC50,"curve of first compound, second compound 94.9 pM",5.14
same,pIC50,"curve of first compound, second compound 0.0003 µM",5.53
same,pIC50,"curve of first compound, second compound 0.000949 µM",6.01
same,pIC50,"curve of first compound, second compound 0.003 µM",> 7.50
same,"viability, T/C","second compound 30 pM, first compound 0.0316 µM",103%
same,"viability, T/C","second compound 30 pM, first compound 0.1 µM",94.9%
same,"viability, T/C","second compound 30 pM, first compound 0.316 µM",93.8%
same,"viability, T/C","second compound 30 pM, first compound 1 µM",77.8%
same,"viability, T/C","second compound 30 pM, first compound 3.16 µM",62.6%
same,"viability, T/C","second compound 30 pM, first compound 10 µM",49%
same,"viability, T/C","second compound 94.9 pM, first compound 0.0316 µM",106%
same,"viability, T/C","second compound 94.9 pM, first compound 0.1 µM",107%
same,"viability, T/C","second compound 94.9 pM, first compound 0.316 µM",93.6%
same,"viability, T/C","second compound 94.9 pM, first compound 1 µM",75.4%
same,"viability, T/C","second compound 94.9 pM, first compound 3.16 µM",60%
same,"viability, T/C","second compound 94.9 pM, first compound 10 µM",46%
same,"viability, T/C","second compound 0.0003 µM, first compound 0.0316 µM",99%
same,"viability, T/C","second compound 0.0003 µM, first compound 0.1 µM",96.7%
same,"viability, T/C","second compound 0.0003 µM, first compound 0.316 µM",91.1%
same,"viability, T/C","second compound 0.0003 µM, first compound 1 µM",69.5%
same,"viability, T/C","second compound 0.0003 µM, first compound 3.16 µM",50.2%
same,"viability, T/C","second compound 0.0003 µM, first compound 10 µM",32.5%
same,"viability, T/C","second compound 0.000949 µM, first compound 0.0316 µM",81.8%
same,"viability, T/C","second compound 0.000949 µM, first compound 0.1 µM",80.6%
same,"viability, T/C","second compound 0.000949 µM, first compound 0.316 µM",78.1%
same,"viability, T/C","second compound 0.000949 µM, first compound 1 µM",45.3%
same,"viability, T/C","second compound 0.000949 µM, first compound 3.16 µM",26.6%
same,"viability, T/C","second compound 0.000949 µM, first compound 10 µM",9.62%
same,"viability, T/C","second compound 0.003 µM, first compound 0.0316 µM",8.41%
same,"viability, T/C","second compound 0.003 µM, first compound 0.1 µM",3.38%
same,"viability, T/C","second compound 0.003 µM, first compound 0.316 µM",3.43%
same,"viability, T/C","second compound 0.003 µM, first compound 1 µM",0.71%
same,"viability, T/C","second compound 0.003 µM, first compound 3.16 µM",0.82%
same,"viability, T/C","second compound 0.003 µM, first compound 10 µM",0.59%
O=C(c1cc(Cc2n[nH]c(=O)c3ccccc23)ccc1F)N1CCN(C(=O)C2CC2)CC1,"viability, T/C",compound 0.0949 µM,99.6% and 102% and 108%
same,"viability, T/C",compound 0.3 µM,100% and 93.2% and 96%
same,"viability, T/C",compound 0.949 µM,90.1% and 99.8% and 99.6%
same,"viability, T/C",compound 3 µM,98.9% and 93.9% and 98.2%
same,"viability, T/C",compound 9.49 µM,92.9% and 89.8% and 95.1%
same,"viability, T/C",compound 30 µM,85.1% (2×) and 69.1%
same,pIC50,curve of compound,< 4.52
